This test addresses T1, T. thermophilus Mfd (Thermus thermophilus, UniProt Q72KB4).
T1 construct: full-length, N-terminal hexahistidine tag, plasmid pET28a-NH-TthMfd, expressed in E. coli BL21(DE3)
T1 sequence (Q72KB4 1-978): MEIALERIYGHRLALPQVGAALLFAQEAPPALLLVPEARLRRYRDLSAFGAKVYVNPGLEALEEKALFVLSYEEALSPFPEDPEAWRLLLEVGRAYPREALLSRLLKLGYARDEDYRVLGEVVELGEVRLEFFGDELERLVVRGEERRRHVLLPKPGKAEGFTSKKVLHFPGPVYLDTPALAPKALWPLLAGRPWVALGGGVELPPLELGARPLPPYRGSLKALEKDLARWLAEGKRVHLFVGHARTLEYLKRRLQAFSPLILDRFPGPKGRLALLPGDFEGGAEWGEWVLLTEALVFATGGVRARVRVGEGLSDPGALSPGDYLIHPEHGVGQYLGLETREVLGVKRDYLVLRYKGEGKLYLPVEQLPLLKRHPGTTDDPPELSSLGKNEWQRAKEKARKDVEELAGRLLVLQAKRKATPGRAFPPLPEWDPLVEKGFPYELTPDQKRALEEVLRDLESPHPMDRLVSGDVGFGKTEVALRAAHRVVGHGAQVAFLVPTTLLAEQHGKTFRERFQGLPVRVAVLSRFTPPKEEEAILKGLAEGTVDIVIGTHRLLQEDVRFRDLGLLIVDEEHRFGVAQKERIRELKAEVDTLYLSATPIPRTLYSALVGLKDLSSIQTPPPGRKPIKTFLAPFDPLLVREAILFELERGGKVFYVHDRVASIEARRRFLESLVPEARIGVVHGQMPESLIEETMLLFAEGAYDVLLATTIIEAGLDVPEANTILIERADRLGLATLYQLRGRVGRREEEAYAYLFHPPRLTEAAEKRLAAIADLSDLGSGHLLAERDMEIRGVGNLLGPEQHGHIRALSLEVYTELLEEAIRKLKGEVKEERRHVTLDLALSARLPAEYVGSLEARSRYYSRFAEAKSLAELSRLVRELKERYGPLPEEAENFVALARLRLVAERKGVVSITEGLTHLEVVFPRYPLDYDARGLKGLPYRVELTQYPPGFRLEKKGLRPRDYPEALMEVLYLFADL
In words: colorimetric phosphate release ATPase assay. It counts as biochemical. Conditions: 10 mM MgCl2, 0.1 M KCl, pH 7.9, 37°C; 0.4-2 mM ATP.

The structures appear in SMILES notation.

Data on one compound can be found in PMC7672476, “Structural basis of Mfd-dependent transcription termination” (Nucleic Acids Research, 2020).

With `Nc1ncnc2c1ncn2[C@@H]1O[C@H](COP(=O)(O)OP(=O)(O)OP(=O)(O)O)[C@@H](O)[C@H]1O` [ATP], the “colorimetric phosphate release ATPase assay” value is on record as “ATPase activity assay verified that T. thermophilus Mfd hydrolyzed ATP”.
